Source: ChEMBL document CHEMBL3612024, “Synthesis of five and six-membered heterocycles bearing an arylpiperazinylalkyl side chain as orally active antinociceptive agents” (2015)
The source made the active and inactive calls. The calls are words filed in the database; no cut-off is given here.

Key:
Conditions in all cases: Abdomen
Mus musculus [1] = experiment: Antinociceptive activity in Swiss albino mouse assessed as inhibition of acetic acid-induced abdominal constriction at 10 mg/kg, po administered 30 mins prior to testing measured for 10 mins starting 5 mins after acetic acid injection relative to control; assay type: functional
Mus musculus [2] = experiment: Antinociceptive activity in Swiss albino mouse assessed as inhibition of acetic acid-induced abdominal constriction at 30 mg/kg, po administered 30 mins prior to testing measured for 10 mins starting 5 mins after acetic acid injection relative to control; assay type: functional
Mus musculus [3] = experiment: Antinociceptive activity in Swiss albino mouse assessed as inhibition of acetic acid-induced abdominal constriction at 30 mg/kg, po administered 30 mins prior to testing measured for 10 mins starting 5 mins after acetic acid injection in presence of alpha-2 adrenergic receptor antagonist yohimbine; assay type: functional, organism-based
Mus musculus [4] = experiment: Antinociceptive activity in Swiss albino mouse assessed as inhibition of acetic acid-induced abdominal constriction at 20 mg/kg, po administered 30 mins prior to testing measured for 10 mins starting 5 mins after acetic acid injection relative to control; assay type: functional
Mus musculus [5] = experiment: Antinociceptive activity in Swiss albino mouse assessed as inhibition of acetic acid-induced abdominal constriction at 40 mg/kg, po administered 30 mins prior to testing measured for 10 mins starting 5 mins after acetic acid injection relative to control; assay type: functional
Mus musculus [6] = experiment: Antinociceptive activity in Swiss albino mouse assessed as inhibition of acetic acid-induced abdominal constriction at 20 mg/kg, po administered 30 mins prior to testing measured for 10 mins starting 5 mins after acetic acid injection in presence of alpha-2 adrenergic receptor antagonist yohimbine; assay type: functional, organism-based
Mus musculus [7] = experiment: Antinociceptive activity in Swiss albino mouse assessed as inhibition of acetic acid-induced abdominal constriction at 80 mg/kg, po administered 30 mins prior to testing measured for 10 mins starting 5 mins after acetic acid injection relative to control; assay type: functional
Mus musculus [8] = experiment: Antinociceptive activity in Swiss albino mouse assessed as inhibition of acetic acid-induced abdominal constriction at 40 mg/kg, po administered 30 mins prior to testing measured for 10 mins starting 5 mins after acetic acid injection in presence of alpha-2 adrenergic receptor antagonist yohimbine; assay type: functional, organism-based

Row | SMILES | inhibition in vivo at 10 mg/kg (Mus musculus [1]) | inhibition in vivo at 30 mg/kg (Mus musculus [2]) | inhibition (Mus musculus [3]) | inhibition in vivo at 20 mg/kg (Mus musculus [4]) | inhibition in vivo at 40 mg/kg (Mus musculus [5]) | inhibition (Mus musculus [6]) | inhibition in vivo at 80 mg/kg (Mus musculus [7]) | inhibition (Mus musculus [8]) | inhibition (Mus musculus [1]) | inhibition (Mus musculus [2])
1 | CCc1c(C)nn(CCCN2CCN(c3ccc(C)cc3)CC2)c(=O)c1N | 23% | 45% | inactive | – | – | – | – | – | – | –
2 | CCCCC(=O)c1c(C)nn(CCCN2CCN(c3ccc(C)cc3)CC2)c(=O)c1N | 8% | – | – | 23% | 15% | inactive | – | – | – | –
3 | C=Cc1c(C)nn(CCCN2CCN(c3ccc(F)cc3)CC2)c(=O)c1N | 0% | 28% | inactive | – | – | – | – | – | – | –
4 | CC(=O)c1cccn1CCCN1CCN(c2ccc([N+](=O)[O-])cc2)CC1 | – | – | – | 11% | 0% | – | 9% | – | – | –
5 | CC(=O)c1cccn1CCCN1CCN(c2ccc(F)cc2)CC1 | 0% | – | – | 16% | 38% | – | – | inactive | – | –
6 | C=Cc1c(C)nn(CCCCN2CCN(c3ccccc3OCC)CC2)c(=O)c1N | – | – | – | – | – | – | – | – | inactive | inactive
7 | Cc1c(C#N)c(-c2ccccc2)nn1CCCN1CCN(c2ccc([N+](=O)[O-])cc2)CC1 | 0% | – | – | 21% | 49% | – | – | inactive | – | –
8 | O=c1occ(-c2ccccc2)n1CCCN1CCN(c2cccc(Cl)c2)CC1 | 7% | – | – | 31% | 38% | inactive | – | – | – | –
9 | Cc1c(C#N)c(-c2ccccc2)nn1CCCN1CCN(c2cccc(Cl)c2)CC1 | – | – | – | 0% | 23% | – | – | inactive | – | –
10 | CC(=O)c1cccn1CCCN1CCN(c2ccc(C)cc2)CC1 | 12% | – | – | 7% | 9% | – | 4% | – | – | –
11 | CCCC(=O)c1c(C)nn(CCCN2CCN(c3ccc(C)cc3)CC2)c(=O)c1N | 0% | – | – | 25% | 32% | inactive | – | – | – | –
12 | COc1cccc(N2CCN(CCCn3nc(-c4ccccc4)c(C#N)c3C)CC2)c1 | 0% | – | – | 21% | 34% | inactive | – | – | – | –
13 | CCC/C=C/c1c(C)nn(CCCN2CCN(c3ccc(C)cc3)CC2)c(=O)c1N | 0% | – | – | 16% | 36% | – | – | inactive | – | –
14 | CC/C=C/c1c(C)nn(CCCN2CCN(c3ccc(C)cc3)CC2)c(=O)c1N | 5% | – | – | 35% | 45% | inactive | – | – | – | –
15 | Cc1ccc(N2CCN(CCCn3nc(-c4ccccc4)c(C#N)c3C)CC2)cc1 | 0% | – | – | 8% | 30% | inactive | – | – | – | –
16 | C=Cc1c(C)nn(CCCCN2CCN(c3ccc(C)cc3)CC2)c(=O)c1N | 3% | 42% | inactive | – | – | – | – | – | – | –
